Experimental data published in publication PMC12481576, “Barbituric Acid Derivatives as Covalent Inhibitors of Leishmania braziliensis Dihydroorotate Dehydrogenase” (Journal of Medicinal Chemistry, 2025).
Several values for one entry are separate records, joined by “and”; a condition that tells them apart may be missing. Equal values may be shown once. Read-outs that look alike come from different tables or passages of the source.

Key:
[1] = for Raw data: analyte peak area, T=0: 0 min; for Raw data: analyte peak area, T=0 / Raw data: analyte peak area, T=5 / Raw data: analyte peak area, T=10 / Raw data: analyte peak area, T=20 / Raw data: analyte peak area, T=30 / Raw data: analyte peak area, T=60: raw LC-MS area; for Raw data: analyte peak area, T=5: 5 min; for Raw data: analyte peak area, T=10: 10 min; for Raw data: analyte peak area, T=20: 20 min; for Raw data: analyte peak area, T=30: 30 min; for Raw data: analyte peak area, T=60: 60 min
in vitro [2] = conditions: liver microsomes; for microsomal CLint at 1 μM / remaining at 5 min, 1 μM: male, CD1, mouse; for remaining at 5 min, 1 μM / remaining at 10 min, 1 µM / remaining at 20 min, 1 µM / remaining at 0.5 h, 1 µM / remaining at 1 h, 1 µM: pH 7.4, % Remaining; for remaining at 5 min, 1 μM: T=5 min; for remaining at 10 min, 1 µM / remaining at 20 min, 1 µM / remaining at 0.5 h, 1 µM / remaining at 1 h, 1 µM: mouse; for remaining at 10 min, 1 µM: T=10 min; for remaining at 20 min, 1 µM: T=20 min; for remaining at 0.5 h, 1 µM: T=30 min, 30 min; for remaining at 1 h, 1 µM: T=60 min, 60 min
[3] = Mouse liver microsome stability in the absence of cofactors (NCF); conditions: mouse liver microsomes, 60 min, no cofactor (NCF), raw LC-MS area
in vitro [4] = conditions: mouse, microsomes, pH 7.4, % Remaining, T=60 NCF
[5] = mouse liver microsomes, replicate 1 (left block)
[6] = mouse liver microsomes, replicate 2 (right block)
[7] = n=1, mouse liver microsomes, 1 µM, n=1
[8] = n=2, mouse liver microsomes, 1 µM, n=2

SMILES: O=C(O)Cc1ccccc1Nc1c(Cl)cccc1Cl [Diclofenac]
- Calculated T-half (min), Average ([1]; mouse liver microsomes (CD1 male), 0.4 mg/ml protein, test conc 1 µM, average of n=1 and n=2): 59.3 min
- Calculated T-half (min), n=1 ([1]; mouse liver microsomes (CD1 male), 0.4 mg/ml protein, test conc 1 µM, replicate n=1): 62.0 min and 61.99 min
- Calculated T-half (min), n=2 ([1]; mouse liver microsomes (CD1 male), 0.4 mg/ml protein, test conc 1 µM, replicate n=2): 56.6 min and 56.57 min
- Raw data: analyte peak area, T=0 [1, 5]: 17523
- Raw data: analyte peak area, T=0 [1, 6]: 19401
- Calculated CLint, app (µl/min/mg), n=1 ([1]; mouse liver microsomes, 0.4 mg/ml protein, 1 µM, replicate n=1): 27.95 µL/min/mg
- Calculated CLint, app (µl/min/mg), n=2 ([1]; mouse liver microsomes, 0.4 mg/ml protein, 1 µM, replicate n=2): 30.63 µL/min/mg
- Modified T-half (min), Average ([1]; mouse liver microsomes, 0.4 mg/ml, 1 µM, average, limited to T Half range 3.00 - […]): 59.3 min
- Raw data: analyte peak area, T=5 [1, 5]: 17080
- Raw data: analyte peak area, T=5 [1, 6]: 16757
- Raw data: analyte peak area, T=10 [1, 5]: 15901
- Raw data: analyte peak area, T=10 [1, 6]: 17016
- Raw data: analyte peak area, T=20 [1, 5]: 13027
- Raw data: analyte peak area, T=20 [1, 6]: 13336
- Raw data: analyte peak area, T=30 [1, 5]: 11583
- Raw data: analyte peak area, T=30 [1, 6]: 11936
- Raw data: analyte peak area, T=60 [1, 5]: 10413
- Raw data: analyte peak area, T=60 [1, 6]: 8808
- microsomal CLint at 1 μM (in vitro [2]; pH 7.4): 27.9 µL/min/mg
- remaining at 5 min, 1 μM (in vitro [2]; [7]): 94%
- remaining at 5 min, 1 μM (in vitro [2]; [8]): 89.2%
- microsomal CLint at 1 μM (in vitro [2]; pH 7.4, Calculated CLint, app (µl/min/mg), Average, mouse liver microsomes, 0.4 mg/ml protein, 1 µM): 29.3 µL/min/mg
- microsomal CLint at 1 μM (in vitro [2]; pH 7.4, Calculated CLint, app (µl/min/mg), n=1, mouse liver microsomes, 0.4 mg/ml protein, 1 µM, replicate n=1): 27.9 µL/min/mg
- microsomal CLint at 1 μM (in vitro [2]; pH 7.4, Calculated CLint, app (µl/min/mg), n=2, mouse liver microsomes, 0.4 mg/ml protein, 1 µM, replicate n=2): 30.6 µL/min/mg
- remaining at 10 min, 1 µM (in vitro [2]; [7]): 86.6%
- remaining at 10 min, 1 µM (in vitro [2]; [8]): 87%
- remaining at 20 min, 1 µM (in vitro [2]; [7]): 79.5%
- remaining at 20 min, 1 µM (in vitro [2]; [8]): 79%
- remaining at 0.5 h, 1 µM (in vitro [2]; [7]): 62%
- remaining at 0.5 h, 1 µM (in vitro [2]; [8]): 63%
- remaining at 1 h, 1 µM (in vitro [2]; [7]): 52.3%
- remaining at 1 h, 1 µM (in vitro [2]; [8]): 47.8%
- Raw data: analyte peak area, T=60 NCF ([3]; replicate 1 (left block)): 17862
- Raw data: analyte peak area, T=60 NCF ([3]; replicate 2 (right block)): 19654
- remaining at 1 h, 1 µM (in vitro [4]; n=1): 98.3%
- remaining at 1 h, 1 µM (in vitro [4]; n=2): 88.5%
